Molecular target: T1, human CCR-3 (Homo sapiens, UniProt P51677)
T1 construct: expressed in transfected cells; host or cells: rat basophil leukaemia (RBL-2H3) cells, membranes
T1 sequence (P51677 1-355): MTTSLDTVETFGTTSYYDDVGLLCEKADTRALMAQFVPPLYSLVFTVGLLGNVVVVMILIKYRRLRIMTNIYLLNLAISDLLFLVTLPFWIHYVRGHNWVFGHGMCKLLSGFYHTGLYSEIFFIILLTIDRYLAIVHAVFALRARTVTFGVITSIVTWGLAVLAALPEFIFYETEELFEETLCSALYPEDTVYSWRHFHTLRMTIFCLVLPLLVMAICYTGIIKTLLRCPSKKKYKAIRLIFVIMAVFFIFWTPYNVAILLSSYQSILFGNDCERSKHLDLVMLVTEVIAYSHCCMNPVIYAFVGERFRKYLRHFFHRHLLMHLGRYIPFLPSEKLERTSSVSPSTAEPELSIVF
Experiment: binding of [125I]-human eotaxin to human CCR-3 (SPA assay)
Settings: membranes of RBL-2H3 cells stably expressing CCR3; 50 pM [125I]-human eotaxin; 4 hours at room temperature; read-out: IC50 (concentration of test compound at which 50% inhibition of eotaxin binding occurs)
Description: Compounds of formula I and their pharmaceutically acceptable salts are useful as pharmaceuticals. In particular, they inhibit human chemokine receptor CCR-3. The effect of compounds of the formula I, i.e. agents of the invention, on the binding of human eotaxin to human CCR-3 is determined by the following assay:
Recombinant cells expressing human CCR-3 are captured by wheatgerm agglutinin (WGA) polyvinyltoluidene (PVT) SPA beads (available from Marshal), through a specific interaction between the WGA and carbohydrate residues of glycoproteins on the surface of the cells. [^125I]-human eotaxin (available from Amersham) binds specifically to CCR-3 receptors bringing the [^125I]-human eotaxin in close proximity to the SPA beads. Emitted â-particles from the [^125I]-human eotaxin excite, by its proximity, the fluorophore in the beads and produce light.
Preparation of Assay Buffer: 5.96 g HEPES and 7.0 g sodium chloride are dissolved in distilled water and 1 M aqueous CaCl2 (1 ml) and 1M aqueous MgCl2 (5 ml) are added. The pH is adjusted to 7.6 with NaOH and the solution made to a final volume of 1 l using distilled water. 5 g bovine serum albumin and 0.1 g sodium azide are then dissolved in the solution and the resulting buffer stored at 4° C. A COMPLETE™ protease inhibitor cocktail tablet (available from Boehringer) is added per 50 ml of the buffer on the day of use.
Preparation of Homogenisation Buffer: Tris-base (2.42 g) is dissolved in distilled water, the pH of the solution is adjusted to 7.6 with hydrochloric acid and the solution is diluted with distilled water to a final volume of 1 l. The resulting buffer is stored at 4° C. A COMPLETE™ protease inhibitor cocktail tablet is added per 50 ml of the buffer on the day of use. […]
The assay is performed in a final volume of 250 μl per well of an OPTIPLATE™ microplate (ex Canberra Packard). […] The resulting scintillations are counted using a Canberra Packard TopCount, each well being counted for 1 minute. […]

IC50 [nM]	Structure (SMILES)
297	O=C(CNC(=O)c1ccc(Cl)cc1)NCC1CN(Cc2ccc(Cl)c(Cl)c2)C1 [Example 5]
420	Cc1cc(C(=O)NCC(=O)NCC2CN(Cc3ccc(Cl)c(Cl)c3)C2)c(C)n1Cc1ccncc1 [Example 7]
198	CCOc1ccc2nc(SCC(=O)NCC3CN(Cc4ccc(Cl)c(Cl)c4)C3)sc2c1 [Example 8, N-[1-(3,4-Dichloro-benzyl)-azetidin-3-yl-methyl]-2-(6-ethoxy-benzothiazol-2-ylsulfanyl)-acetamide]
